# Tests used:
# [1] = Solubility in aqueous media (USP definition); type: physicochemical; conditions: water; USP definition: more than 10,000 parts of solvent for 1 part of solute
# Text: The solvent referred to herein is water.
# [2] = Thermal stability at melt-extrusion temperatures; type: physicochemical; conditions: temperatures up to 300° C.
# Procedure: One of the most important parameters of melt extrusion is the temperature at which the melt-extruder is operating. […] At temperatures lower than 120° C., itraconazole will not dissolve completely in most water-soluble polymers and the extrudate will not have the required bioavailability. In addition, the process is difficult because of the high viscosity of the mixture. At temperatures of more than 300° C. the water-soluble polymer may decompose to an unacceptable level.
smiles,measurement,setting,value
"CCC(C)n1ncn(-c2ccc(N3CCN(c4ccc(OCC5COC(Cn6cncn6)(c6ccc(Cl)cc6Cl)O5)cc4)CC3)cc2)c1=O (racemic) [itraconazole, (±)-cis-4-[4-[4-[4-[[2-(2,4-dichlorophenyl)-2-(1H-1,2,4-triazol-1-yl-methyl)-1,3-dioxolan-4-yl]methoxy]phenyl]-1-piperazinyl]phenyl]-2,4-dihydro-2-(1-methylpropyl)-3H-1,2,4-triazol-3-one]",solubility in aqueous media,[1],practically insoluble
same,thermal stability (decomposition),[2],thermally very stable

# From US9642806B2, “Antifungal compositions with improved bioavailability” (Janssen Pharmaceutica N.V., priority 1996, dated 2017)
